Patent US8129137B2, “Two-photon probe for real-time monitoring of intracellular free zinc ions, method for preparing the probe and method for real-time monitoring of intracellular free zinc ions using the probe” (Korea University Industrial & Academic Collaboration …, priority 2008, dated 2012)
Converted amounts (≈) assume the structure as drawn.

How the values were obtained:
[1] = Measurement of water solubility; format: physicochemical; details: kinetic from dmso stock, H2O, 0.2% DMSO, maximum concentration in the linear region of fluorescence intensity vs probe concentration
Description: A small amount of each of the two-photon probes (AZn2 and AZn1) prepared in Examples 1 and 2 was dissolved in DMSO to prepare a stock solution ([…]). The solution was diluted to 6.0×10^−3˜6.0×10^−5 M and added to a cuvette containing 3.0 mL of H2O by using a micro syringe. In all cases, the concentration of DMSO in H2O was maintained to be 0.2%.
FIGS. 1a through 1d are plots showing variations in the fluorescence intensity of the two-photon probes at different concentrations.
The plots of FIGS. 1b and 1d show variations in the fluorescence intensity of AZn2 and AZn1 as a function of the probe concentration, respectively, and have a profile in which the fluorescence intensity increases linearly at low concentrations. […] The maximum concentration in the linear region was taken as the water solubility. The water solubilities of the two probes were all 3.0 μM.

[2] = Two-photon cross section and action spectra; format: physicochemical; details: MOPS buffer pH 7.2, presence of Zn2+; 780 nm
Description: The two-photon cross section (δ) was determined by using femto second (fs) fluorescence measurement technique.
The intensities of the two-photon induced fluorescence spectra of the reference and the sample probe were measured, and the two-photon cross section of the sample probe was calculated according to Equation 3:
[formula] wherein the subscripts s and r represent sample and reference molecules, respectively, δ represents the two-photon cross section, S represents the strength of signals collected by a CCD detector, φ represents the fluorescence quantum efficiency, φrepresents the total fluorescence collection efficiency of an experimental system, c represents the number density of the molecules within each of the solutions, and δr represents the two-photon cross section of reference molecules.
Referring to FIG. 9, the two-photon action spectra of the Zn^2+ complexes with AZn1 and AZn2 in the buffer solutions indicated a φδ value of ˜90 GM at 780 nm, 4˜24-fold larger than those of TSQ and FluZin-3.

[3] = One-photon fluorescence intensity as a function of pH; format: physicochemical; details: biologically relevant pH; 1 μM probe, 30 mM MOPS, 100 mM KCl
Description: FIGS. 8a and 8b show the one-photon fluorescence intensities of AZn1 and AZn2 (1 μM for each), respectively, as a function of pH when free Zn^2+ were absent (∘) and present at a concentration of 1 μM (▪) in mixed solutions of 30 mM MOPS and 100 mM KCl.

293 cells = experiment: Two-photon microscopy of probe-labeled 293 cells; format: cell-based; details: for TPEF of labeled cells collected at 360-460 nm / TPEF of labeled cells collected at 500-620 nm: 2 μM probe, excitation 780 nm
Description: 293 cells were incubated in DMEM (WelGene) supplemented with 10% FBS (WelGene), penicillin (100 unit/ml) and streptomycin (100 μg/ml).
Two days before imaging, the cells were transferred to glass-bottomed dishes (MatTek) and plated thereon. For labeling, the growth medium was replaced with FBS-free DMEM. The cells were incubated under 5% CO2, 37° C., using a 2 μM sensor for 30 minutes, washed three times with phosphate-buffered saline (PBS; Gibco), and further incubated in a colorless serum-free medium. Meanwhile, primary cortical cultures were taken from cerebral cortices of 1-day-old rats (Sprague-Dawley (SD)). The cerebral cortices were dissociated in Hank's balanced salt solution (HBSS; Gibco BRL, Gaithersburg, Md., USA) containing 1 U/ml papain (Worthington Biochemical Corporation, NJ, USA), plated at a density of 100 to 200 cells/mm^2 on poly-D-lysine and laminin-coated glass cover slips, and maintained in Neurobasal media (Gibco) supplemented with 2% B-27 (Gibco) and penicillin/streptomycin in a CO2 incubator at 37° C. After […] 7-15 days, the cortical cultures were washed three times with PBS and incubated in the presence of AZn2 (2 μM) in PBS at 37° C. for 30 minutes.
Two-photon fluorescence microscopy images of cells and tissue labeled with AZn2 were obtained with spectral confocal and multiphoton microscopes (Leica TCS SP2) with a ×100 oil objective and numerical aperture (NA)=1.30. The two-photon fluorescence microscopy images were obtained by exciting the two-photon probe with a mode-locked titanium-sapphire laser source (Coherent Chameleon, 90 MHz, 200 fs) set at wavelength of 780 nm and an output power of 1,230 mW, which corresponded to approximately 10 mW average power in the focal plane. To obtain images at 360-460 nm and 500-620 nm range, internal PMTs were used to collect the signals in an 8 bit unsigned 512×512 pixels at 400 Hz scan speed.
Moreover, because the fluorescence intensities of the two-photon probes increase slightly at pH<4 (FIGS. 8a and 8b), there is a possibility that the probes in the acidic vesicles might partially contribute to the TPM images. To rule out such possibility, 293 cells and primary cortical cultures were co-stained with AZn2 and LysoTracker Red (LTR), a well known one-photon fluorescent probe for the acidic vesicles, and the images were co-localized.
More specifically, (a) and (f) are bright field images, (b) and (g) are pseudo colored images of the AZn2-labeled 293 cells collected at 360-460 nm, (c) and (h) are pseudo colored images of the AZn2-labeled 293 cells collected at 500-580 nm, (d) and (i) are OPM images of the LTR-labeled 293 cells collected at 600-650 nm, and (e) and (j) are co-localized images. The one-photon and two-photon excitations were performed at 543 nm and 780 nm, respectively, the scale bar is 30 μm, and the images shown are representative images from replicate experiments (n=5).
FIG. 13 is images of AZn1- and LTR (2 μM for each)-labeled 293 cells: (a)-(e) and (f)-(j) are images of the labeled cells before and after addition of 100 μM TPEN to the imaging solution, respectively. More specifically, (a) and (f) are bright field images; (b) and (g) are pseudo colored images of the AZn1-labeled 293 cells collected at 360-460 nm; (c) and (h) are pseudo colored images of the AZn1-labeled 293 cells collected at 500-580 nm; (d) and (i) are OPM images of the LTR-labeled 293 cells collected at 600-650 nm; and (e) and (j) are co-localized images. […]

Row | SMILES | solubility [1] [µM] | δ, peak two-photon cross section [2] [GM] | φδ, two-photon action cross section [2] [GM] | pH sensitivity of fluorescence [3] | TPEF of labeled cells collected at 360-460 nm (293 cells) | TPEF of labeled cells collected at 500-620 nm (293 cells) | intracellular location of probe (293 cells)
1 | Nc1ccc(NCCN(Cc2ccccn2)Cc2ccccn2)cc1 [AZn1] | 3 (≈ 1 µg/mL) | 210 | 86 | pH insensitivity | no TPEF | appreciable TPEF | 
2 | COc1cc(NC(=O)CN(C)c2ccc3cc(C(C)=O)ccc3c2)ccc1NCCN(Cc1ccccn1)Cc1ccccn1 [AZn2] | 3 (≈ 1.81 µg/mL) | 140 | 95 | pH insensitivity | no TPEF | appreciable TPEF | predominantly located in the cytosolic compartments
